Reference: ChEMBL document CHEMBL1123256, “Neuroleptics from the 4a,9b-trans-2,3,4,4a,5,9b-hexahydro-1H-pyrido[4,3-b]indole series. 3. Carboxamidoalkyl derivatives” (J Med Chem, 1986)

Columns and labels:
[1] = target: Dopamine receptor
Description: Ability to displace [3H]spiroperidol from labeled Dopamine receptor of corpus striatum

[2] = system: Rattus norvegicus; assay: Compound was tested in vivo for its ability to antagonize the stereotypy in rats induced by d-amphetamine sulfate 1 hr later of the treatment; value ranges from 0.1-0.32; assay type: functional
[3] = target: Dopamine receptor; assay: Compound was tested in vitro for its ability to displace [3H]spiroperidol from labeled Dopamine receptor of corpus striatum; assay type: functional
[4] = system: Rattus norvegicus; assay: Compound was tested in vivo for its ability to antagonize the stereotypy in rats induced by d-amphetamine sulfate 5 h later of the treatment; value ranges from 0.32-1.0; assay type: functional
[5] = target: Dopamine receptor; remark: listed apart in the source
Description: Compound was tested in vitro for its ability to displace [3H]spiroperidol from labeled dopamine receptors of corpus striatum

[6] = system: Rattus norvegicus; assay: Compound was tested in vivo for its ability to antagonize the stereotypy in rats induced by d-amphetamine sulfate 1 hr later of the treatment; value ranges from 0.03-0.1; assay type: functional
[7] = system: Rattus norvegicus; assay: Compound was tested in vivo for its ability to antagonize the stereotypy in rats induced by d-amphetamine sulfate 24 hr later of the treatment; value ranges from 0.32-1.0; assay type: functional
[8] = system: Rattus norvegicus; assay: Compound was tested in vivo for its ability to antagonize the stereotypy in rats induced by d-amphetamine sulfate 5 hr later of the treatment; value ranges from 0.1-0.032; assay type: functional

CC(=O)NCCN1CC[C@@H]2C(C1)c1cc(F)ccc1N2c1ccc(F)cc1.Cl (some centres not stated)
IC50 [1]: 16 nM

Cl.N#CCCCN1CC[C@@H]2C(C1)c1cc(F)ccc1N2c1ccc(F)cc1 (some centres not stated)
ED50 [2]: 0.1 mg/kg

CC(=O)NCCCCCCCN1CC[C@@H]2C(C1)c1cc(F)ccc1N2c1ccc(F)cc1.Cl (some centres not stated)
IC50 [3]: 9 nM

Cl.NCCCCN1CC[C@@H]2C(C1)c1cc(F)ccc1N2c1ccc(F)cc1 (some centres not stated)
IC50 [1]: 28 nM

Cl.O=c1oc2ccccc2n1CCCCN1CC[C@@H]2C(C1)c1cc(F)ccc1N2c1ccc(F)cc1 (some centres not stated)
ED50 [4]: 0.32 mg/kg
IC50 [5]: 28 nM

Cl.O=C1c2ccccc2C(=O)N1CCCCN1CC[C@@H]2C(C1)c1cc(F)ccc1N2c1ccc(F)cc1 (some centres not stated)
IC50 [5]: 27 nM

CC(=O)NCCCCCCN1CC[C@@H]2C(C1)c1cc(F)ccc1N2c1ccc(F)cc1.Cl (some centres not stated)
IC50 [1]: 8 nM

CC(=O)NCCCCN1CC[C@@H]2C(C1)c1cc(F)ccc1N2c1ccc(F)cc1.Cl (some centres not stated)
IC50 [1]: 15 nM

CCOC(=O)NCCCCN1CC[C@@H]2C(C1)c1cc(F)ccc1N2c1ccc(F)cc1.Cl (some centres not stated)
IC50 [1]: 11 nM

CC(C(=O)CN1CC[C@@H]2C(C1)c1cc(F)ccc1N2c1ccc(F)cc1)c1ncco1.Cl (some centres not stated)
IC50 [1]: 10 nM

CC(=O)NCCCN1CC[C@@H]2C(C1)c1cc(F)ccc1N2c1ccc(F)cc1.Cl (some centres not stated)
IC50 [1]: 10 nM
ED50 [6]: 0.03 mg/kg
ED50 [7]: 0.32 mg/kg

CC(=O)NCCCCCN1CC[C@@H]2C(C1)c1cc(F)ccc1N2c1ccc(F)cc1.Cl (some centres not stated)
IC50 [1]: 9 nM

Cl.O=C1CCCCN1CCCCN1CC[C@@H]2C(C1)c1cc(F)ccc1N2c1ccc(F)cc1 (some centres not stated)
ED50 [8]: 0.032 mg/kg
IC50 [5]: 6.2 nM
